Results as given in PMC7269033, “A composite nanocarrier to inhibit precipitation of the weakly basic drug in the gastrointestinal tract” (Drug Delivery, 2020).
≈ marks a conversion by molar mass, not a printed value. Read-outs that look alike come from different tables or passages of the source.

What was measured:
[1] = Cytotoxicity by MTT assay; type: cell-based; conditions: human, Caco-2 cells, tested concentrations 0.05 μg/mL to 200 μg/mL, read-out: cell viability
Experimental: Cytotoxicity of DE, dabigatran etexilate-loaded single micelles (DE-SMs) and DE-CMs was investigated by the MTT assay (Zhai et al., [2013]). Caco-2 cells were supplied by KeyGEN BioTECH Co., Ltd. (Nanjing, China) and maintained in medium composite of DMEM (high glucose), 20% FBS and 1% penicillin/streptomycin solution. Cells were cultured at a density of 5 × 10^4 cells/well in 96-well plates and incubated at 37 °C under 5% CO2 for 24 h. Then, the complete medium was removed and cells were further incubated with 100 μL of complete medium containing DE, DE-SMs and DE-CMs at 37 °C for 24 h, respectively. Next, the medium was replaced with 20 μL of MTT (5 mg/mL) solution and 80 μL of fresh medium. Following 4 h of incubation, the medium containing MTT was discarded and 150 μL of DMSO was added to each well to dissolve the granular crystallization. The optical density of the samples was measured at 490 nm wavelength using a microplate ELISA analyzer (Thermo Scientific, USA) (Fan et al., [2017a]). The negative control was the group of Caco-2 cells without drugs. Cell viability was calculated as follows: (4) Cell viability (%)=(1−ODnegtive control−ODsample/ODnegtive control)×100% where ODnegative control is the optical density of the negative control group, and ODsample is the optical density of the experimental group.

[2] = Cellular transport studies (Papp, efflux ratio); type: in vitro ADME; conditions: human
Experimental: The Caco-2 cell monolayer is the most widespread model for cellular transport experiments to evaluate the efflux effect of P-gp (Hunter et al., [1993]). The transepithelial electrical resistance (TEER) value of Caco-2 cell monolayer model was measured using a cell resistance meter (Millicell-ERS, Millipore, USA), and models were used for transport experiments when the TEER value exceeded […] (Andrew & Cameron, [2012]).
For apical to basolateral (AP > BL) (basolateral to apical (BL > AP)) transport experiments, 1.5 mL of Hank’s Balanced Salt Solution (HBSS) loaded with DE, DE-SMs and DE-CMs (the concentration of DE in different groups was 200 μg/mL) was added to the AP side (BL side) and 2.6 mL of blank HBSS was added to the BL side (AP side), respectively. At fixed time intervals, 400 μL aliquots were taken from the BL side (AP side) with replacement of the fresh HBSS. The samples were frozen in a refrigerator at –80 °C until HPLC analysis. The HPLC method employed an ODS C18 column (250 × 4.6 mm, 5 μm, Dikma Technologies, China) and a methanol-water (75:25, v/v) mobile phase with a flow rate of 1.0 mL/min. The detection wavelength was 316 nm and the injection volume was 20 μL. The apparent permeability coefficient (Papp) and efflux ratio (ER) were calculated as follows: (5) Papp=dQ/dt/A×C0 where dQ/dt is the steady-state appearance rate of DE on the receiver side, C0 is the initial concentration of DE on the supply side, and A is the surface area of the cell monolayer. (6) ER=Papp(BL→AP)/Papp(AP→BL) where Papp(BL→AP) is the Papp value of DE transferred from the BL side to AP side, and Papp(AP→BL) is the Papp value of DE transferred from the AP side to BL side.

[3] = design: method as in Chai et al., 2016; conditions: 37 °C, ref Chai et al., 2016, cited from earlier work
[4] = cited from earlier work

Question: For CCCCCCOC(=O)NC(=N)c1ccc(NCc2nc3cc(C(=O)N(CCC(=O)OCC)c4ccccn4)ccc3n2C)cc1 [DE, dabigatran etexilate], which viability at 24 h [1] is on record?
Answer: > 80%

Question: And the efflux ratio at 200 μg/mL ([2]; Caco-2, Papp(BL→AP)/Papp(AP→BL), read-out: ER value (efflux ratio))?
Answer: 14.2

Question: What about the Papp A→B at 200 μg/mL ([2]; Caco-2 monolayer, DE 200 μg/mL, read-out: Papp (AP to BL)) of the same molecule?
Answer: 0.59 ± 0.055 ×10⁻⁶ cm/s

Question: And the Papp B→A at 200 μg/mL ([2]; Caco-2 monolayer, DE 200 μg/mL, read-out: Papp (BL to AP))?
Answer: 8.44 ± 0.072 ×10⁻⁶ cm/s

Question: And the solubility ([3]; SGF)?
Answer: 19245 µg/mL (≈ 30.7 mM)

Question: What about the solubility ([3]; SIF) of the same molecule?
Answer: 3.06 µg/mL (≈ 0.00487 mM)

Question: And the absolute bioavailability ([4]; after oral administration, ref Greig & Mckeage, 2014)?
Answer: approximately 6.5%

Question: And the oral bioavailability ([4]; ref Wang et al., 2013)?
Answer: 3–7%
